{
  "source": "patent US5457092A",
  "about": "“Methods of promoting bone growth in mammals comprising administration of modified parathyroid hormone” (Gesellschaft fur Biotechnologische Forschung mbH (GBF), priority 1987, dated 1995)",
  "key": {"[1]": {"system": "chondrocytes isolated from the sterna of 16-day-old chicken embryos", "experiment": "Incorporation of 3H-methylthymidine into total DNA of chicken embryo chondrocytes (Examples 1-3)", "format": "cell-based", "from_the_text": "FIG. 1 is a graph showing the stimulation of chondrocyte DNA synthesis by the addition of PTH and PTH fragments; expressed as the ratio of the rate of incorporation of ^3 H-methylthymidine into the total DNA of the induced cultures to that of the untreated control cultures.\nFIGS. 2-6 are graphs showing the dosage/effect curves for the mitogenic activity of PTH and PTH fragments;\nFIG. 1: In order to determine the incorporation of ^3 H-methylthymidine into total DNA the cells were cultivated on microtiter plates in M199 medium at a concentration of foetal calf serum (FCS) of less than 0.5% (by volume). The cell density of the chondrocytes that reacted to the addition of PTH with an increase in the incorporation of ^3 H-methylthymidine into the total DNA was from 1250 to 6000 cells/microtitre well (diameter 6 mm) at the time of plating-out. […] The incorporation of ^3 H-methylthymidine into the total DNA was determined as follows. After removing the radioactive medium, the adherent growing chondrocytes were washed with PBS and lysed in the microtitre wells. The total DNA was then precipitated under acid conditions at low temperature and transferred onto filter papers using a semi-automatic harvesting device. The rate of incorporation into total DNA could then be determined; cf. FIG. 1. […]"}, "[2]": {"system": "osteoblast enriched rat embryo calvaria cell cultures", "experiment": "Cyclic AMP production in rat embryo calvaria cell cultures", "format": "cell-based", "conditions": "100 nM; 15 min; control 29 ± 2.9 pmol/mg of protein", "procedure,_shortened": "(§1)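 Osteoblast-enriched rat embryo calvaria cultures stimulated with PTH fragments from the central portion of the molecule. Cyclic AMP measured 15 min after stimulation; CK specific activity measured 24 h after stimulation. Values are means ±S.E.M., N≥5, compared with controls by Student's T test.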"}, "[3]": {"system": "osteoblast enriched rat embryo calvaria cell cultures", "experiment": "CK specific activity in rat embryo calvaria cell cultures", "format": "cell-based", "conditions": "for CK specific activity, effect of fragment (experimental value/control value): 100 nM, 24 h, control 457 ± 46 nmol/min per mg of protein; for increase of CK activity (in words): treated for 24 h", "procedure,_shortened": "as §1"}, "[4]": {"system": "osteoblast enriched rat embryo calvaria cell cultures", "experiment": "DNA synthesis ([3H]thymidine incorporation) in rat embryo calvaria cell cultures", "format": "cell-based", "conditions": "for [3H)Thymidine incorporation, effect of fragment (experimental value/control value): 100 nM, 24 h, control 624 ± 73 c.p.m./μg of DNA", "procedure,_shortened": "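Cultures stimulated with bPTH (1-84); [3H]thymidine incorporation into DNA measured 24 h after stimulation. Values are means ±S.E.M., N≥5, compared with controls by Student's t test.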"}, "[5]": {"system": "rat organs (epiphysis, diaphysis, kidney)", "experiment": "CK specific activity in rat organs after i.p. injection", "format": "in vivo", "conditions": "for CK specific activity, Kidney / CK specific activity, Epiphysis / CK specific activity, Diaphysis: rat; for CK specific activity, Kidney: control 1.43 ± 0.20; for CK specific activity, Epiphysis: control 15.0 ± 2.2; for CK specific activity, Diaphysis: control 26.0 ± 3.,9; for effect on CK activity in rat organs (in words): 0.875 μg/rat", "experimental": "FIG. 13 is a graph showing the time-dependent stimulation by hPTH (28-48) of CK specific activity in rat organs. Female rats (20-25 days old) were injected i.p. with hPTH-(28-48) (1.25 μg/rat). Experimental details are as described for FIG. 10. (a) Diaphysis, (b) epiphysis, (c) kidney. *P<0.05, **P<0.01 versus controls.\nFIG. 14 is a graph showing the dose-dependent stimulation of CK specific activity by hPTH (1-34) in rat organs. Female rats (20-25 days old) were injected i.p. with hPTH-(1-34). At 4 h later, rats were killed and extracts were prepared and assayed as described below. Experimental details are as described for FIG. 10 (a) Diaphysis, (b) epiphysis, (c) kidney. *P<0.05, ** P<0.01 versus controls.\nFIG. 15 is a graph showing the dose-dependent stimulation of CK specific activity by hPTH (28-48) in rat organs. Female rats (20-25 days old) were injected i.p. with hPTH-(28-48). Experimental details are as described for FIG. 13 (a) Diaphysis, (b) epiphysis, (c) kidney. *P<0.05, **P<0.01 versus controls.\nFIG. 16 is a graph showing the […] stimulation by bPTH (1-84) of CK specific activity in rat organs. Female rats (20-25 days old) were injected i.p. with bPTH-(1-84) (3.5 μg/rat). At the times indicated, the rats were killed and the diaphyses (a) and epiphyses (b) of long bones as well as the kidneys (c) were collected and homogenized. Extracts were prepared and assayed as described below. Results are means ±S.E.M for π=5. Statistical significance of differences between treated and control groups by Student's T test: *P<0.05; **P<0.01. Note that the activity scales differ for different organs.\nKidneys, tibia and femur were excised; the epiphyses or diaphyses of the long bones were collected and washed thoroughly with cold 0.9% NaCl. The bones were split open lengthwise and the marrow was scraped out. Organs were homogenized in ice-cold buffer containing 50 mM-Tris/HCl (pH 6.8), 5 mH-magnesium acetate. 2.5 mM-dithiothreitol, 0.4 mM-EDTA and 250 mM-sucrose using a Polytron homogenizer in 10 s bursts with intervening cooling periods. Supernatant extracts were obtained by centrifugation at 12000 g for 5 min at 4° C. CK activity was measured at 30° C. in a Gilford 250 automatic recording spectrophotometer at 340 nm using a coupled assay for ATP, in 0.5 ml of incubation mixture containing 50 mM-imidazole acetate buffer (pH 6.7), 25 mM-phosphocreatine, 20 mM-N-acetylcysteine, 20 mM-D-glucose, 10 mM-magnesium acetate, 5 mM-EDTA, 2 mM-ADP, 2 mM-NAD+, 2 mM-dithiothreitol, 50 μM-diadenosine pentaphosphate (adenylate kinase inhibitor), 5 μg of bovine serum albumin. 1.2 units of glucose-6-phosphate dehydrogenase and 0.8 units of hexokinase. Protein was determined by the Coomassie Brilliant Blue dye-binding method, with bovine serum albumin as the standard."}, "[6]": {"conditions": "4 h after injection of 0.875 μg"}},
  "data": [
    {"substance": "hPTH(28-48): mid-regional PTH fragment 28-48, human source (LQDVHNFVALGAPLAPRDAGS; Parathyroid hormone; UniProt P01270 59-79, looked up, fragment)", "values": [
      {"measurement": "EC50", "setting": "[1]; 3H-methylthymidine incorporation into total DNA, read-out: concentration for semi-maximum stimulation", "value": 349, "unit": "nM"},
      {"measurement": "increase in the incorporation of 3H-methylthymidine into total DNA by a factor", "setting": "[1]; ratio induced / untreated control cultures, depending on concentration", "value": 6},
      {"measurement": "Cyclic AMP concentration, effect of fragment (experimental value/control value)", "setting": "[2]", "value": "1.22 ± 0.09"},
      {"measurement": "CK specific activity, effect of fragment (experimental value/control value)", "setting": "[3]", "value": "2.15 ± 0.15"},
      {"measurement": "increase of CK activity (in words)", "setting": "[3]", "value": "maximally active"},
      {"measurement": "stimulation of DNA synthesis (in words)", "setting": "[4]", "value": "maximal"},
      {"measurement": "[3H)Thymidine incorporation, effect of fragment (experimental value/control value)", "setting": "[4]", "value": "2.82 ± 0.18"},
      {"measurement": "time of maximal increase of CK activity, diaphysis", "setting": "[5]; 1.25 μg/rat i.p.", "value": 1, "unit": "h"},
      {"measurement": "time of maximal increase of CK activity, epiphysis", "setting": "[5]; 1.25 μg/rat i.p.", "value": 4, "unit": "h"},
      {"measurement": "effect on CK activity after injection (in words)", "setting": "[5]; 1.25 μg/rat i.p., equivalent to 14 nM", "value": "increased CK activity"},
      {"measurement": "CK activity in diaphysis over time (in words)", "setting": "[5]; 1.25 μg/rat i.p., 1, 4 and 24 h", "value": "significantly increased at all three times measured"},
      {"measurement": "CK activity in epiphysis at 1 h (in words)", "setting": "[5]; 1.25 μg/rat i.p., 1 h", "value": "significant increase"},
      {"measurement": "CK activity in epiphysis at 24 h (in words)", "setting": "[5]; 1.25 μg/rat i.p., 24 h", "value": "no significant increase"},
      {"measurement": "CK specific activity in kidney at 24 h (in words)", "setting": "[5]; 1.25 μg/rat i.p., 24 h", "value": "declined to close to the constitutive activity"},
      {"measurement": "stimulation of CK specific activity in diaphysis at the dose of maximum effect", "setting": "[5]; 1.25 μg/rat, 4 h later", "value": "approx. 3 fold"},
      {"measurement": "dose of maximal effect on CK specific activity", "setting": "[5]; i.p., 4 h later", "value": 1.25, "unit": "μg/rat"},
      {"measurement": "dose giving a significant increase in CK specific activity in all organs", "setting": "[5]; i.p., 4 h later, diaphysis, epiphysis, kidney", "value": 0.15, "unit": "μg/rat"},
      {"measurement": "CK specific activity, Kidney", "setting": "[5]; 4 h after injection of 1.25 μg", "value": "2.26 ± 0.34 μmol/min per mg of protein"},
      {"measurement": "CK specific activity, Epiphysis", "setting": "[5]; 4 h after injection of 1.25 μg", "value": "20.9 ± 3.0 μmol/min per mg of protein"},
      {"measurement": "CK specific activity, Diaphysis", "setting": "[5]; 4 h after injection of 1.25 μg", "value": "37.2 ± 3.3 μmol/min per mg of protein"}
    ]},
    {"substance": "hPTH(25-39): PTH fragment 25-39, human source (RKKLQDVHNFVALGA; Parathyroid hormone; UniProt P01270 56-70, looked up, fragment)", "values": [
      {"measurement": "Cyclic AMP concentration, effect of fragment (experimental value/control value)", "setting": "[2]", "value": "0.87 ± 0.30"},
      {"measurement": "CK specific activity, effect of fragment (experimental value/control value)", "setting": "[3]", "value": "2.15 ± 0.24"},
      {"measurement": "stimulation of DNA synthesis (in words)", "setting": "[4]", "value": "maximal"},
      {"measurement": "[3H)Thymidine incorporation, effect of fragment (experimental value/control value)", "setting": "[4]", "value": "2.96 ± 0.18"},
      {"measurement": "effect on CK activity in rat organs (in words)", "setting": "[5]; equivalent to 14 nM", "value": "significant increase"},
      {"measurement": "CK specific activity, Kidney", "setting": "[5]; [6]", "value": "3.22 ± 0.78 μmol/min per mg of protein"},
      {"measurement": "CK specific activity, Epiphysis", "setting": "[5]; [6]", "value": "24.0 ± 3.2 μmol/min per mg of protein"},
      {"measurement": "CK specific activity, Diaphysis", "setting": "[5]; [6]", "value": "41.8 ± 4.9 μmol/min per mg of protein"}
    ]},
    {"substance": "hPTH(34-47): PTH fragment 34-47, human source; comparative example (FVALGAPLAPRDAG; Parathyroid hormone; UniProt P01270 65-78, looked up, fragment) [reference compound]", "values": [
      {"measurement": "increase of CK activity (in words)", "setting": "[3]", "value": "inactive"},
      {"measurement": "effect on CK activity in rat organs (in words)", "setting": "[5]; equivalent to 14 nM", "value": "no effect"},
      {"measurement": "CK specific activity, Kidney", "setting": "[5]; [6]", "value": "1.64 ± 0.32 μmol/min per mg of protein"},
      {"measurement": "CK specific activity, Epiphysis", "setting": "[5]; [6]", "value": "16.7 ± 2.5 μmol/min per mg of protein"},
      {"measurement": "CK specific activity, Diaphysis", "setting": "[5]; [6]", "value": "24.9 ± 4.8 μmol/min per mg of protein"}
    ]}
  ]
}
